The values that follow come from patent US12053533B2, “Fluorescent probe for cyclooxygenase-2” (The Board of Trustees of the University of Illinois, priority 2020, dated 2024).

Molecules are shown by their SMILES. Entries after “also recorded” stand apart in the source; their conditions may differ. Some results are limits rather than exact numbers.

In data set [1] the test system is COX-2 activity in HEK 293T cells over-expressing human COX-2. The data set can be described thus: Confocal live-cell imaging of human COX-2 transfected HEK 293T cells. The data set is classed as cell-based. The following applies: CoxFluor 10 μM.
Method: Prior to plating onto 4-well chambered cover glasses, the surface exposed substrate was coated with R&D Systems™ Cultrex Poly-L-Lysine (Fisher Scientific) according to the manufacturers protocol (allowed to dry>3 h). […] Transfections was performed using Lipofectamine 3000 (Thermo Fisher Scientific) according to the manufacturer's protocol. […] Media was removed from each well and replaced with 500 μL Opti-MEM™ Reduced Serum Media followed by the addition of 20 μL transfection master mix.
Transfections were performed using the Lipofectamine 3000 reagent according to the aforementioned protocol. Control wells were treated the same as the transfected wells without the addition of the transfection master mix. […] Each well was imaged using a Zeiss LSM 700 confocal microscope (n=3 technical replicates; n=4 biological replicates). For GSH knockdown experiments, the initial media change was performed with 1 mM NEM (0.1% DMSO final concentration) in serum-free DMEM media and the cells were allowed to incubate for 30 minutes before proceeding to the staining with CoxFluor. […] All images were processed using identical parameters and false colored (LUT: jet.lut) in ImageJ.
The subject of data set [2] is COX-2 activity in RAW 264.7 macrophage lysates. The data set can be described thus: RAW 264.7 macrophage lysate COX-2 activity assay. The following applies: NEM 1 mM, CoxFluor readout. The data set is classed as cell-based, mouse.
A short description of data set [3]: CoxFluor, Ctrl-CoxFluor & Resorufin stability assays. The data set is classed as physicochemical. The conditions noted are these: 8 hours at room temperature or 37° C., with or without ambient light. How it is done:
CoxFluor, Ctrl-CoxFluor & Resorufin Stability Assays. Stability assays were performed for a 10 μM solution of each compound in a series of buffers/solvents (100 mM Tris-HCl at pH 8.0, DMEM with 10% FBS, DMEM without serum and DMSO). Stability was assessed at room temperature or at 37° C. and in the presence or absence of ambient light. Fluorescence was measured using the plate reader with excitation at 540 nm and emission from 560-700 nm and the relative turn-on was determined by the change of fluorescence intensity at 590 nm.

Another data set concerns the target T1, COX-2 (Homo sapiens, UniProt P35354).
T1 sequence (P35354 18-604): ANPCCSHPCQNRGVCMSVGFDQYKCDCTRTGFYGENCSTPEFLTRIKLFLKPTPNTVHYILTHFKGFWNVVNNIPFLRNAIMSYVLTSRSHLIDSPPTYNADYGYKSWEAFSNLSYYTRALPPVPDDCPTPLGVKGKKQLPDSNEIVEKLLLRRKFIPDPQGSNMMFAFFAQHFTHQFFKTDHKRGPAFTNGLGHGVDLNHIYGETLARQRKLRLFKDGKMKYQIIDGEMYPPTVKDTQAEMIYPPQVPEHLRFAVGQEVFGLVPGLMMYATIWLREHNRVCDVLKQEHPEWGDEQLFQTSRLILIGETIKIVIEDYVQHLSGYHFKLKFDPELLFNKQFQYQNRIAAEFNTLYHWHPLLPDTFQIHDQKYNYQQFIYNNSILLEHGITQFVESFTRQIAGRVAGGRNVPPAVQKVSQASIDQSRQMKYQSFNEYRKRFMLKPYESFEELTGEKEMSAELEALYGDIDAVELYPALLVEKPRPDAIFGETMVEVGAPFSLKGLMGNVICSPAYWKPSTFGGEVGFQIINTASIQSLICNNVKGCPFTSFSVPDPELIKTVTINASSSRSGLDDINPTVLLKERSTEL
The data set can be described thus: COX-2 fluorescence assay with CoxFluor (fluorimeter / plate reader). The format is biochemical. Also on record: made in house. The procedure:
Fluorimeter Fluorescence Assay. The fluorescence assays were performed in microquartz cuvettes or submicroquartz cuvettes with a maximum volume of 600 μL. Reactions were monitored at room temperature using 540 nm excitation and emission was collected from 550-700 nm with a slit width of 1.25 mm. Total volumes of the reaction mixtures were maintained at 570 μL. […] Experiments in the presence of reduced GSH were conducted according to the same procedure, but GSH (30 μL, 19 mM in 100 mM Tris-HCl, pH 8.0) was added before the addition of CoxFluor for a final concentration of 1 mM. Assays performed in submicroquartz cuvettes were performed maintaining the same ratios, but with a final volume of 142.5 μL.
Plate Reader Fluorescence Assay. The fluorescence assays were performed at room temperature using 540 nm excitation and 590 nm emission. Total volume of the reaction mixture was maintained at 190 μL. […] Inhibition assays were performed according to the same procedure, but COX-2 was preincubated with hemin and inhibitor for 0.5 h at 0° C. before initiation with CoxFluor. Relative fluorescence enhancement is calculated by comparing to a buffer control with 10 μM CoxFluor.

Data set [4] concerns the target T2, COX-1 isolated from bovine vesicles (Bos taurus, UniProt O62664).
T2 construct: COX-1 isolated from bovine vesicles; from tissue; host or cells: bovine vesicles
T2 sequence (O62664 25-600): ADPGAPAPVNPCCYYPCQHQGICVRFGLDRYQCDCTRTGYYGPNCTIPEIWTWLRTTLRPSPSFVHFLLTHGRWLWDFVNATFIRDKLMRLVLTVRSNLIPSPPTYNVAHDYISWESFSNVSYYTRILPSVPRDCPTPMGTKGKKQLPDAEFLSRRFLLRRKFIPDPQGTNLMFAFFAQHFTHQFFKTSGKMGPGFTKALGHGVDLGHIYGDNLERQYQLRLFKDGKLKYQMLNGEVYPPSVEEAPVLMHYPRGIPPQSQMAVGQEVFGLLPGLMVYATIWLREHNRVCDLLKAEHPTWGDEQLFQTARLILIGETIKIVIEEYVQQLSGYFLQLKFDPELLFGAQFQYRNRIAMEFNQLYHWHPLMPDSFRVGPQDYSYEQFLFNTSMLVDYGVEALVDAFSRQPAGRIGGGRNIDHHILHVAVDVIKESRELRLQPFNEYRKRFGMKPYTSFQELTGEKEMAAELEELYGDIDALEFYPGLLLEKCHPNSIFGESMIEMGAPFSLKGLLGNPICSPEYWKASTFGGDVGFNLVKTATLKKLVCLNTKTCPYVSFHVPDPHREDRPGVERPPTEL
The data set can be described thus: Isoform selectivity: CoxFluor incubated with COX-1. The format is biochemical. The following applies: even in the presence of 10-fold excess enzyme activity. How it is done: Enzyme Selectivity. Enzyme activity was defined as the amount substrate (μmol) consumed during one minute by one milligram of enzyme in 100 mM Tris-HCl at pH 8.0 under saturating conditions. Enzyme concentrations were measured using the BCA assay (Thermo Fisher Scientific) according to the published protocol with bovine serum albumin for the standard curve. […] The oxygen electrode was calibrated using 1% sodium sulfite for 0% oxygen and atmosphere equilibrated 100 mM Tris-HCl at pH 8.0 for 100% oxygen. The reaction was monitored at 37° C. in a glass chamber with a total reaction volume of 1 mL. […] When measured, all enzyme activities were confirmed to be under saturating conditions and within the first 20% of the reaction. The selectivity of CoxFluor (10 μM) was monitored after incubation with either 0.101 U COX-2 or 1.01 U of the other enzymes, unless noted otherwise above, in 100 mM Tris-HCl buffer at pH 8.0 using the plate reader with excitation at 540 nm and emission at 590 nm. Total reaction volume was maintained at 95 μL with a final DMSO concentration of 1.26% (v/v).

On to `CCCCC/C=C\C/C=C\C/C=C\C/C=C\CCCC(=O)N1c2ccc(O)cc2Oc2cc(O)ccc21` [CoxFluor], for which the “fluorescence increase for transfected cells compared to the control” value in data set [1] (3 h, N-ethylmaleimide glutathione depletion) is given as 1.2 fold. Also, the “fluorescence enhancement for the control relative to indomethacin-treated transfected cells” value in data set [1] (4.5 h) is given as 1.2 fold. Further, in data set [2] (19 hr LPS activation), the “maximum increase in COX-2 activity in lysates” value amounted to 17.6 fold. In data set [2] (within the first 4 hr of LPS activation), the “increase in COX-2 activity in lysates” value is reported as 2.4 fold. Moreover, in data set [3], the “stability in Tris-HCl and DMEM buffer systems” value is given as “stable”. The “measured rate for turnover relative to natural substrate cyclooxygenase activity” value on COX-2 is listed as at most 100 fold. At COX-2 (CoxFluor 10 μM, COX-2 250 nM, hemin 1 μM, 4 h, room temperature, 100 mM Tris HCl pH 8.0), this compound gave a fluorescent turn-on response of 41 fold. Further, the “COX-2-specific fluorescence enhancement in the presence of glutathione” value at COX-2 (glutathione 1 mM, COX-2 250 nM) is on record as “maintained significant COX-2-specific fluorescence enhancements”. For the same compound, the “fluorescent enhancement with COX-1” value in data set [4] is given as “not observed; also recorded: No fluorescent enhancement was observed”.
